The experiment addresses T1, GK (glucokinase, residues 12-465) (Homo sapiens, UniProt P35557).
T1 construct: I.D. No. 1 corresponds to residues 12-465 of glucokinase; made in house; host or cells: DH10b-T1r E. coli
T1 sequence (P35557 with tags, fused parts or gaps isoform P35557-2): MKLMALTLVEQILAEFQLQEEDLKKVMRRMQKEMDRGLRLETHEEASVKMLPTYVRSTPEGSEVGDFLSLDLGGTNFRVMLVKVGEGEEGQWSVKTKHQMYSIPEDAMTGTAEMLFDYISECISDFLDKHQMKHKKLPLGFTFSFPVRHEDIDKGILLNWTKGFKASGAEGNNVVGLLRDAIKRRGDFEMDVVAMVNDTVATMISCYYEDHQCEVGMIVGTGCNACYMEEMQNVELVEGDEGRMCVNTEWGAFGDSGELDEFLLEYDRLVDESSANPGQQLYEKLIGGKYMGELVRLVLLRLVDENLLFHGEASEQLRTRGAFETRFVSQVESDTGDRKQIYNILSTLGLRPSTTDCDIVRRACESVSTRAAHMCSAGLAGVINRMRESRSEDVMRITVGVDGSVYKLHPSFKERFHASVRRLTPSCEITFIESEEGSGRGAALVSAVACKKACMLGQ
Description: enzymatic glucokinase activity assay (ATP consumption, KinaseGlo luminescence). Type of experiment: biochemical. To be noted: 5 μM ATP, 5 mM Glucose, reported as bins; for EC50: Kact = concentration that displays 50% of the maximal increase in GK activity, 60 min, room temperature, read-out: pKact. A digest of the protocol:
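E. coli-expressed recombinant GK purified by two anion-exchange steps. Reaction in 25 mM Hepes pH 7.2, 10 mM MgCl2, 1 mM DTT, 5 μM ATP, 5 mM glucose, 2% DMSO, 60 min at room temperature. ATP consumption quantified by KinaseGlo luminescence; pKact and % ACTmax derived by non-linear curve fitting.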
For orientation: In Kinase-Glo more light means more ATP remaining.

Where [1] appears, read: calculated maximal gain in GK enzyme activity at a saturating concentration of the compound, read-out: % ACTmax.
Setting [2] is: read-out: % ACTmax, calculated maximal gain in GK enzyme activity at a saturating concentration of the compound.

Structures can show the parent of a compound that is named as a salt. Where two headings read alike, the source gives them in different places.

On to `O=C(Nc1cnccn1)[C@@H](CC1CCOCC1)n1ncc2c(S(=O)(=O)C3CC3)cccc21` [Compound 90, (R)-2-(4-(cyclopropylsulfonyl)-1H-indazol-1-yl)-N-(pyrazin-2-yl)-3-(tetrahydro-2H-pyran-4-yl)propanamide], for which the EC50 is no less than 15.8 µM. In addition, under setting [1], the Emax was 90 to 100%.
The matching figures for `CC(C)(C)S(=O)(=O)c1cnn(C(CC2CCOCC2)C(=O)Nc2ncc(F)s2)c1` (centres unmarked) [Compound 49, 2-(4-(tert-butylsulfonyl)-1H-pyrazol-1-yl)-N-(5-fluorothiazol-2-yl)-3-(tetrahydro-2H-pyran-4-yl)propanamide]: 3.98 to 12.6 µM and 90 to 100%.
The like results for `O=C1CC[C@@H](C[C@@H](C(=O)Nc2ncc(F)s2)n2cc(S(=O)(=O)C3CC3)cn2)C1` [Compound 55, (S)-2-(4-(cyclopropylsulfonyl)-1H-pyrazol-1-yl)-N-(5-fluorothiazol-2-yl)-3-((S)-3-oxocyclopentyl)propanamide] were, in that order, 3.98 to 12.6 µM and no more than 90%.
The like results for `O=C(Nc1ncc(F)s1)C(CC1CCOCC1)n1ncc2c(S(=O)(=O)C3CC3)cc(Cl)cc21` (centres unmarked) [Compound 121, 2-(6-chloro-4-(cyclopropylsulfonyl)-1H-indazol-1-yl)-N-(5-fluorothiazol-2-yl)-3-(tetrahydro-2H-pyran-4-yl)propanamide] were, in that order, no more than 0.316 µM and 90 to 100%.
As for `O=C(Nc1cnccn1)C(CC1CCOCC1)n1cc2c(S(=O)(=O)C3CC3)cncc2n1` (centres unmarked) [Compound 169, 2-(4-(cyclopropylsulfonyl)-2H-pyrazolo[3,4-c]pyridin-2-yl)-N-(pyrazin-2-yl)-3-(tetrahydro-2H-pyran-4-yl)propanamide], the EC50 was no less than 15.8 µM. Further, under setting [1], the Emax is no more than 90%.
The like results for `O=C(Nc1cnccn1)C(CC1CCOCC1)n1ncc2c(S(=O)(=O)C3CC3)cccc21` (centres unmarked) [Compound 65, 2-(4-(cyclopropylsulfonyl)-1H-indazol-1-yl)-N-(pyrazin-2-yl)-3-(tetrahydro-2H-pyran-4-yl)propanamide] were, in that order, 0.398 to 1.26 µM and 90 to 100%.
The matching figures for `O=C(Nc1ncc(Cl)s1)C(CC1CCCC1)n1cc(S(=O)(=O)C2CC2)cn1` (centres unmarked) [Compound 33, N-(5-chlorothiazol-2-yl)-3-cyclopentyl-2-(4-(cyclopropylsulfonyl)-1H-pyrazol-1-yl)propanamide]: 1.58 to 3.16 µM and no less than 111%.
The like results for `O=C(Nc1ncc(Cl)s1)[C@H](CC1CCCC1)n1cc(S(=O)(=O)C2CC2)cn1` [Compound 39, (S)-N-(5-chlorothiazol-2-yl)-3-cyclopentyl-2-(4-(cyclopropylsulfonyl)-1H-pyrazol-1-yl)propanamide] were, in that order, 1.58 to 3.16 µM and no less than 111%.
For the molecule `O=C(Nc1cnccn1)C(CC1CCOCC1)n1ncc2c(S(=O)(=O)C3CC3)cc(F)cc21` (centres unmarked) [Compound 103, 2-(4-(cyclopropylsulfonyl)-6-fluoro-1H-indazol-1-yl)-N-(pyrazin-2-yl)-3-(tetrahydro-2H-pyran-4-yl)propanamide], the EC50 lay in the range of 1.58 to 3.16 µM. In addition, the Emax under setting [1] was 101 to 105%.
The like results for `O=C(Nc1ncc(F)s1)C(CC1CCOCC1)n1ncc2c(S(=O)(=O)C3CC3)c(Br)ccc21` (centres unmarked) [Compound 150, 2-(5-bromo-4-(cyclopropylsulfonyl)-1H-indazol-1-yl)-N-(5-fluorothiazol-2-yl)-3-(tetrahydro-2H-pyran-4-yl)propanamide] were, in that order, 0.398 to 1.26 µM and no less than 111%.
The matching figures for `COc1cc(S(=O)(=O)C2CC2)c2cnn(C(CC3CCOCC3)C(=O)Nc3cnccn3)c2c1` (centres unmarked) [Compound 92, 2-(4-(cyclopropylsulfonyl)-6-methoxy-1H-indazol-1-yl)-N-(pyrazin-2-yl)-3-(tetrahydro-2H-pyran-4-yl)propanamide]: 3.98 to 12.6 µM and no more than 90%.
In the case of `COc1ccc2c(cnn2[C@@H](CC2CCOCC2)C(=O)Nc2cnccn2)c1S(=O)(=O)C1CC1` [Compound 94, (S)-2-(4-(cyclopropylsulfonyl)-5-methoxy-1H-indazol-1-yl)-N-(pyrazin-2-yl)-3-(tetrahydro-2H-pyran-4-yl)propanamide], the EC50 was no more than 0.316 µM. Besides, the Emax under setting [1] was 90 to 100%.
`O=C(Nc1cnccn1)C(CC1CCOCC1)n1ncc2c(S(=O)(=O)C3CC3)cncc21` (centres unmarked) [20 (TFA Salt), 2-(4-(cyclopropylsulfonyl)-1H-pyrazolo[3,4-c]pyridin-1-yl)-N-(pyrazin-2-yl)-3-(tetrahydro-2H-pyran-4-yl)propanamide]: the EC50 is 1.58 to 3.16 µM. Besides, the “% ACTmax” value (calculated maximal gain in GK enzyme activity at a saturating concentration of the compound) is listed as 106-110%.
Take `O=C(Nc1ncc(Cl)s1)[C@@H](CC1CCCC1)n1cc(S(=O)(=O)C2CC2)cn1` [Compound 38, (R)-N-(5-chlorothiazol-2-yl)-3-cyclopentyl-2-(4-(cyclopropylsulfonyl)-1H-pyrazol-1-yl)propanamide]: the EC50 was no less than 15.8 µM. Besides, the Emax under setting [1] is no less than 111%.
As to `O=C(Nc1ncc(F)s1)C(CC1CCOCC1)n1ncc2c(S(=O)(=O)C3CC3)cncc21` (centres unmarked) [Compound 13, 2-(4-(cyclopropylsulfonyl)-1H-pyrazolo[3,4-c]pyridin-1-yl)-N-(5-fluorothiazol-2-yl)-3-(tetrahydro-2H-pyran-4-yl)propanamide], the EC50 is no more than 0.316 µM. The Emax under setting [2] is 106 to 110%.
`Cn1ccc(NC(=O)C(CC2CCOCC2)n2ncc3c(S(=O)(=O)C4CC4)c(F)ccc32)n1` (centres unmarked) [Compound 152, 2-(4-(cyclopropylsulfonyl)-5-fluoro-1H-indazol-1-yl)-N-(1-methyl-1H-pyrazol-3-yl)-3-(tetrahydro-2H-pyran-4-yl)propanamide]: the EC50 is no more than 0.316 µM. The Emax under setting [1] is 106 to 110%.
Take `O=C(Nc1cnccn1)C(CC1CCOCC1)n1ncc2c(S(=O)(=O)C3CC3)cncc21` (centres unmarked) [20 (Free Base), 2-(4-(cyclopropylsulfonyl)-1H-pyrazolo[3,4-c]pyridin-1-yl)-N-(pyrazin-2-yl)-3-(tetrahydro-2H-pyran-4-yl)propanamide]: the EC50 lay in the range of 0.398 to 1.26 µM. The Emax under setting [2] is 101 to 105%.
In the case of `NC(=O)c1cnc(NC(=O)C(CC2CCCC2)n2cc(S(=O)(=O)C3CC3)cn2)s1` (centres unmarked) [Compound 57], the EC50 lay in the range of 3.98 to 12.6 µM. For the same molecule, the Emax under setting [1] is 101 to 105%.
The like results for `O=C1CC[C@H](C[C@H](C(=O)Nc2ncc(F)s2)n2cc(S(=O)(=O)C3CC3)cn2)C1` [Compound 56, (R)-2-(4-(cyclopropylsulfonyl)-1H-pyrazol-1-yl)-N-(5-fluorothiazol-2-yl)-3-((R)-3-oxocyclopentyl)propanamide] were, in that order, no less than 15.8 µM and no more than 90%.
Turning to `N#Cc1cccnc1NC(=O)C(CC1CCOCC1)n1ncc2c(S(=O)(=O)C3CC3)cccc21` (centres unmarked) [Compound 86, N-(3-cyanopyridin-2-yl)-2-(4-(cyclopropylsulfonyl)-1H-indazol-1-yl)-3-(tetrahydro-2H-pyran-4-yl)propanamide], the EC50 was no less than 15.8 µM. For the same molecule, the Emax under setting [1] is no more than 90%.
The like results for `O=C(Nc1ncc(F)s1)C(CC1CCCC1)n1cc(S(=O)(=O)C2CC2)cn1` (centres unmarked) [Compound 34, 3-cyclopentyl-2-(4-(cyclopropylsulfonyl)-1H-pyrazol-1-yl)-N-(5-fluorothiazol-2-yl)propanamide] were, in that order, 1.58 to 3.16 µM and no less than 111%.
Regarding `O=C(Nc1ncc(Cl)s1)C(CC1CCOCC1)n1cc(S(=O)(=O)C2CCCC2)cn1` (centres unmarked) [Compound 5, N-(5-chlorothiazol-2-yl)-2-(4-(cyclopentylsulfonyl)-1H-pyrazol-1-yl)-3-(tetrahydro-2H-pyran-4-yl)propanamide], the EC50 was 0.398 to 1.26 µM. Under setting [2], the Emax is no less than 111%.
Turning to `O=C(Nc1ncc(F)s1)[C@H](CC1CCOCC1)n1ncc2c(S(=O)(=O)C3CC3)cccc21` [Compound 69, (S)-2-(4-(cyclopropylsulfonyl)-1H-indazol-1-yl)-N-(5-fluorothiazol-2-yl)-3-(tetrahydro-2H-pyran-4-yl)propanamide], the EC50 is no more than 0.316 µM. In addition, the Emax under setting [1] was 106 to 110%.
The matching figures for `O=C1CCC(CC(C(=O)Nc2ncc(F)s2)n2cc(S(=O)(=O)C3CC3)cn2)C1` (centres unmarked) [Compound 50, 2-(4-(cyclopropylsulfonyl)-1H-pyrazol-1-yl)-N-(5-fluorothiazol-2-yl)-3-(3-oxocyclopentyl)propanamide]: no less than 15.8 µM and no more than 90%.
The like results for `O=C(Nc1ccncn1)C(CC1CCOCC1)n1ncc2c(S(=O)(=O)C3CC3)cccc21` (centres unmarked) [Compound 124, 2-(4-(cyclopropylsulfonyl)-1H-indazol-1-yl)-N-(pyrimidin-4-yl)-3-(tetrahydro-2H-pyran-4-yl)propanamide] were, in that order, 3.98 to 12.6 µM and no less than 111%.

Values taken from US8563730B2, “Pyrazole and fused pyrazole glucokinase activators” (Takeda San Diego, Inc., priority 2008, dated 2013).
